The structures appear in SMILES notation.

In the first assay the test system is MCH receptors. As to the kind of experiment: MCH receptor activity class (method not given).
Conditions: not given
As to `Cc1cc(N[C@H]2CC[C@@H](NC(=O)Nc3ccccc3Oc3ccccc3)CC2)nc2ccccc12` [Example 2561, N-{cis-4-[(4-methylquinolin-2-yl)amino]cyclohexyl}-N′-(2-phenoxyphenyl)urea], the class is given as 1.

Staying with this assay, now noted: MCH receptor activity class 1-3 (percent of control at 10^-7 M or IC50).
As to `Cc1ccccc1NC(=O)NC[C@H]1CC[C@@H](Nc2cc(N(C)C)c3ccccc3n2)CC1` [compound 2368], the class is recorded as 3 (Class 3 The value of percent of control at 10^−7 M was more than 60% or the value of IC50 was more than 200 nM.).
For `CCc1cccc(CC)c1NC(=O)NC[C@H]1CC[C@@H](Nc2nccc(N(C)C)n2)CC1` [compound 2418, N-(2,6-diethylphenyl)-N′-[(cis-4-{[4-(dimethylamino)pyrimidin-2-yl]amino}cyclohexyl)methyl]urea], the class is on record as 1 (Class 1: The value of percent of control at 10^−7 M was less than 40% or the value of IC50 was less than 50 nM.).
Take `Cc1cc(NC(=O)NC[C@H]2CC[C@@H](Nc3cc(N(C)C)c4ccccc4n3)CC2)c(C(F)(F)F)o1` [compound 2392]: the class is 3 (Class 3 The value of percent of control at 10^−7 M was more than 60% or the value of IC50 was more than 200 nM.).
Regarding `CN(C)c1nc(N[C@H]2CC[C@@H](CNC(=O)Nc3c(F)cc(Br)cc3Br)CC2)nc2c1CCCC2` [compound 2463], the class is on record as 3 (Class 3 The value of percent of control at 10^−7 M was more than 60% or the value of IC50 was more than 200 nM.).

Still in this assay, the particulars now being: MCH receptor; class by percent of control at 10^-7 M or IC50.
Regarding `CN(C)c1cc(N[C@H]2CC[C@@H](NC(=O)c3ccc(F)c(C(F)(F)F)c3)CC2)nc2ccccc12` [compound 106, N-(cis-4-{[4-(dimethylamino)quinolin-2-yl]amino}cyclohexyl)-4-fluoro-3-(trifluoromethyl)benzamide], the class is listed as 1 (Class 1: The value of percent of control at 10^−7 M was less than 40% or the value of IC50 was less than 50 nM.).
Take `CN(C)c1cc(N[C@H]2CC[C@@H](NC(=O)c3csc(-c4ccc5c(c4)CCO5)n3)CC2)nc2ccccc12` [compound 141]: the class is on record as 3 (Class 3 The value of percent of control at 10^−7 M was more than 60% or the value of IC50 was more than 200 nM.).
Take `CN(C)c1cc(N[C@H]2CC[C@@H](CNC(=O)c3ccc4c(c3)OCO4)CC2)nc2ccccc12` [compound 174]: the class is 3 (Class 3 The value of percent of control at 10^−7 M was more than 60% or the value of IC50 was more than 200 nM.).

Still in this assay, the particulars now being: activity class 1-3: percent of control at 10^-7 M or IC50.
On to `C=CCOC(=O)NC[C@H]1CC[C@@H](Nc2nccc(N(C)C)n2)CC1` [compound 1650], for which the class is recorded as 3 (Class 3 The value of percent of control at 10^−7 M was more than 60% or the value of IC50 was more than 200 nM.).
Consider `Cc1ccc(OC(=O)NC[C@H]2CC[C@@H](Nc3cc(N(C)C)c4ccccc4n3)CC2)cc1` [compound 1574], for which the class is 3 (Class 3 The value of percent of control at 10^−7 M was more than 60% or the value of IC50 was more than 200 nM.).
Still for that read-out and setting: for `COC(CN[C@H]1CC[C@@H](Nc2nccc(N(C)C)n2)CC1)c1ccccc1` (relative stereo) [compound 1516] the value was 3 (Class 3 The value of percent of control at 10^−7 M was more than 60% or the value of IC50 was more than 200 nM.).
In the case of `CN(C)c1nc(N[C@H]2CC[C@@H](NC(=O)Nc3ccccc3I)CC2)nc2c1CCCC2` [compound 1678], the class is given as 3 (Class 3 The value of percent of control at 10^−7 M was more than 60% or the value of IC50 was more than 200 nM.).
Take `CN(C)c1nc(N[C@H]2CC[C@@H](NC(=O)Oc3ccccc3)CC2)nc2c1CCCC2` [compound 1592]: the class is reported as 3 (Class 3 The value of percent of control at 10^−7 M was more than 60% or the value of IC50 was more than 200 nM.).

Still in this assay, the particulars now being: activity class per percent of control at 10^-7 M or IC50.
`Cc1cc(C(=O)NC[C@H]2CC[C@@H](Nc3nc4c(c(N(C)C)n3)CCCC4)CC2)cc(C)c1OCc1ccccc1` [compound 1082]: the class is 3 (Class 3 The value of percent of control at 10^−7 M was more than 60% or the value of IC50 was more than 200 nM.).
`COc1cccc(OC)c1CN[C@H]1CC[C@@H](Nc2cc(N(C)C)c3ccccc3n2)CC1` [compound 1085]: the class is reported as 3 (Class 3 The value of percent of control at 10^−7 M was more than 60% or the value of IC50 was more than 200 nM.).
As to `CN(C)c1nc(N[C@H]2CC[C@@H](NC(=O)C(CC(=O)c3ccc(Br)cc3)c3c[nH]c4ccccc34)CC2)nc2c1CCCC2` (relative stereo) [compound 992], the class is listed as 3 (Class 3 The value of percent of control at 10^−7 M was more than 60% or the value of IC50 was more than 200 nM.).
For `CN(C)c1cc(N[C@H]2CC[C@@H](NCc3ccc(F)c(Br)c3)CC2)nc2ccccc12` [compound 1105], the class is given as 3 (Class 3 The value of percent of control at 10^−7 M was more than 60% or the value of IC50 was more than 200 nM.).

The assay is the same for the next values; noted with them: class 1-3 by percent of control at 10^-7 M or IC50.
`CN(C)c1nc(N[C@H]2CC[C@@H](NC(=O)c3cc(C(F)(F)F)cc(C(F)(F)F)c3)CC2)nc2c1CCCC2` [compound 514]: the class is 1 (Class 1: The value of percent of control at 10^−7 M was less than 40% or the value of IC50 was less than 50 nM.).

The assay is the same for the next values; noted with them: class by percent of control at 10^-7 M or IC50.
With `CCOc1c(Br)cc(Br)cc1CNC[C@H]1CC[C@@H](Nc2nccc(N(C)C)n2)CC1` [compound 1325], the class is 2 (Class 2: The value of percent of control at 10^−7 M was from 40% to 60% or the value of IC′50 was from 50 nM to 200 nM.).
Take `CN(C)c1nc(N[C@H]2CC[C@@H](NC(=O)Nc3ccccc3OC(F)F)CC2)nc2c1CCCC2` [compound 1843]: the class was 3 (Class 3 The value of percent of control at 10^−7 M was more than 60% or the value of IC50 was more than 200 nM.).
As for `CN(C)c1ccnc(N[C@H]2CC[C@@H](NC(=O)c3cccc(-n4c(-c5ccc(Br)cc5)cc5c4CC(C)(C)CC5=O)c3)CC2)n1` [compound 859], the class is 3 (Class 3 The value of percent of control at 10^−7 M was more than 60% or the value of IC50 was more than 200 nM.).
In the case of `CN(C)c1ccnc(N[C@H]2CC[C@@H](NC(=O)c3cc(F)cc(C(F)(F)F)c3)CC2)n1` [compound 256, N-(cis-4-{[4-(dimethylamino)pyrimidin-2-yl]amino}cyclohexyl)-3-fluoro-5-(trifluoromethyl)benzamide], the class was 2 (Class 2: The value of percent of control at 10^−7 M was from 40% to 60% or the value of IC′50 was from 50 nM to 200 nM.).
With `COc1ccc(CNC[C@H]2CC[C@@H](Nc3nccc(N(C)C)n3)CC2)c(OC)c1C` [compound 1288], the class was 1 (Class 1: The value of percent of control at 10^−7 M was less than 40% or the value of IC50 was less than 50 nM.).
As for `CN(C)c1cc(N[C@H]2CC[C@@H](NC(=O)Cc3ccccc3C(=O)Nc3ccc(Cl)cc3Cl)CC2)nc2ccccc12` [compound 723], the class was 3 (Class 3 The value of percent of control at 10^−7 M was more than 60% or the value of IC50 was more than 200 nM.).
`Cc1ccc(Cl)c(NC(=O)N[C@H]2CC[C@@H](Nc3nc4c(c(N(C)C)n3)CCCC4)CC2)c1` [compound 1856]: the class is recorded as 3 (Class 3 The value of percent of control at 10^−7 M was more than 60% or the value of IC50 was more than 200 nM.).
For `CN(C)c1nc(N[C@H]2CC[C@@H](NC(=S)NCc3ccccc3Cl)CC2)nc2c1CCCC2` [compound 1759], the class is 3 (Class 3 The value of percent of control at 10^−7 M was more than 60% or the value of IC50 was more than 200 nM.).
Still for that read-out and setting: for `CN(C)c1cc(N[C@H]2CC[C@@H](NC(=O)c3ccc([N+](=O)[O-])cc3)CC2)nc2ccccc12` [compound 770, N-(cis-4-{[4-(dimethylamino)quinolin-2-yl]amino}cyclohexyl)-4-nitrobenzamide] the value was 1 (Class 1: The value of percent of control at 10^−7 M was less than 40% or the value of IC50 was less than 50 nM.); for `C=CCSc1ncccc1C(=O)N[C@H]1CC[C@@H](Nc2nccc(N(C)C)n2)CC1` [compound 923], 3 (Class 3 The value of percent of control at 10^−7 M was more than 60% or the value of IC50 was more than 200 nM.).
Take `COC(=O)[C@H](CCSC)NC(=O)N[C@H]1CC[C@@H](Nc2nccc(N(C)C)n2)CC1` (relative stereo) [compound 2219]: the class is given as 3 (Class 3 The value of percent of control at 10^−7 M was more than 60% or the value of IC50 was more than 200 nM.).
Regarding `CN(C)c1ccnc(N[C@H]2CC[C@@H](NCc3ccc(F)c(Cl)c3)CC2)n1` [compound 1242], the class is given as 3 (Class 3 The value of percent of control at 10^−7 M was more than 60% or the value of IC50 was more than 200 nM.).
Take `COc1cc(OC)c(CNC[C@H]2CC[C@@H](Nc3nccc(N(C)C)n3)CC2)c(OC)c1` [compound 1282]: the class is 1 (Class 1: The value of percent of control at 10^−7 M was less than 40% or the value of IC50 was less than 50 nM.).
Turning to `COc1ccc(NC(=O)N[C@H]2CC[C@@H](Nc3cc(N(C)C)c4ccccc4n3)CC2)cc1OC1CCCC1` [compound 2163], the class is on record as 3 (Class 3 The value of percent of control at 10^−7 M was more than 60% or the value of IC50 was more than 200 nM.).
As for `Cc1ccc(-c2ccc(C(=O)N[C@H]3CC[C@@H](Nc4nccc(N(C)C)n4)CC3)o2)c([N+](=O)[O-])c1` [compound 826, N-(cis-4-{[4-(dimethylamino)pyrimidin-2-yl]amino}cyclohexyl)-5-(4-methyl-2-nitrophenyl)-2-furamide], the class is given as 2 (Class 2: The value of percent of control at 10^−7 M was from 40% to 60% or the value of IC′50 was from 50 nM to 200 nM.).
On the same count and under the same terms, for `Cc1ccc(CNC[C@H]2CC[C@@H](Nc3cc(N(C)C)c4ccccc4n3)CC2)cc1` [compound 1186] the value was 3 (Class 3 The value of percent of control at 10^−7 M was more than 60% or the value of IC50 was more than 200 nM.).

Still in this assay, the particulars now being: class by percent of control at 10^−7 M or IC50.
Take `Cc1cccc(Oc2ncccc2C(=O)N[C@H]2CC[C@@H](Nc3ncc(C)c(N(C)C)n3)CC2)c1` [compound 2885, N-(cis-4-{[4-(dimethylamino)-5-methylpyrimidin-2-yl]amino}cyclohexyl)-2-(3-methylphenoxy)nicotinamide]: the class is listed as 1 (Class 1: The value of percent of control at 10^−7 M was less than 40% or the value of IC50 was less than 50 nM.).

For the origin of these results see patent publication US20050197350A1, “Novel quinoline, tetrahydroquinazoline, and pyrimidine derivatives and methods of treatment related to the use thereof” (TAISHO PHARMACEUTICAL CO., LTD., priority 2003, published 2005).
